From PMC8868518, “Exploring Titanium(IV) Complexes as Potential Antimicrobial Compounds” (Antibiotics, 2022)
Counter-ions that a name gives are not always drawn. Like-named read-outs stand apart in the source and are kept apart here.

Columns and labels:
[1] = tested on: S. aureus MRSA (ATCC 43300); experiment: CO-ADD antibacterial assay, growth inhibition (OD600); type: cell-based, Staphylococcus aureus; settings: for MIC / Dmax: Staphylococcus aureus; for MIC / MIC S. aureus (MRSA): predicted or measured MIC, lowest concentration with ≥75% growth inhibition, 0.25-32 μg/mL, 18 h; for Dmax / Dmax S. aureus (MRSA), maximum % inhibition: up to 32 μg/mL; for Dmax: read-out: Dmax S. aureus (MRSA), maximum % inhibition
MRC-5 cells = experiment: MRC-5 cell viability, dose-response treatment, MTT assay; type: cell-based, human; settings: MRC-5 cells, MTT, 72 h, pH 7.4, n = 6, this work
[2] = tested on: HEK293 ATCC CRL-1573 human embryonic kidney cells; experiment: CO-ADD cytotoxicity assay (resazurin); type: cell-based; settings: for antiproliferative effect against HEK293 (in words): all concentrations examined (0.25-32 μg/mL), 20 h, CC50 could not be measured
[3] = Homo sapiens, MRC5, read-out: IC50 ± SD
[4] = Homo sapiens, MRC5, read-out: IC50 ± SD (µg/mL)

Molecule	MIC [1] [mg/L]	Dmax [1] [%]	IC50 (MRC-5 cells; [3]) [µM]	IC50 (MRC-5 cells; [4]) [µg/mL]	antiproliferative effect against HEK293 (in words) [2]	MIC against MRSA in units of molarity ([1]; converted from 16 μg/mL) [µM]	MIC S. aureus (MRSA) [1] [mg/L]	Dmax S. aureus (MRSA), maximum % inhibition [1] [%]	Dmax S. aureus (MRSA), maximum % inhibition ([1]; listed as Ti(Deferasirox)2) [%]	inhibition of HEK293 cell proliferation ([2]; at the maximum concentration tested) [%]	IC50 ± SD (MRC-5 cells) [mg/L]	IC50 (MRC-5 cells; read-out: IC50 ± SD) [µM]	IC50 ± SD (µg/mL) (MRC-5 cells)
O=C(O)c1ccccc1O [Compound 6, salicylic acid, reference compound]	> 32	13.9	> 100	> 13.8									
Oc1cc2ccccc2cc1O [Compound 2, 2,3-dihydroxynaphthalene, reference compound]	> 32	12.6	> 100	> 16									
O=C(O)c1ccc(-n2nc3nc2-c2ccccc2[O][Ti]2([O]c4ccccc4-3)[O]c3ccccc3-c3nc(n(-c4ccc(C(=O)O)cc4)n3)-c3ccccc3[O]2)cc1 [Compound 10, titanium(IV) bis(deferasirox)]					insignificant antiproliferative effect	20.2	16	98.2	~100				
[Cu(Deferasirox)(H2O)]2 [Compound 15]							>32	26.9		~50	7.70 ± 1.47	8.4 ± 1.62	
O=C(O)CC(O)(CC(=O)O)C(=O)O [Compound 1, Trisodium citrate, reference compound]	> 32	10.6	> 100	> 29.4									
[K+].[K+].c1ccc2cc3c(cc2c1)[O][Ti-2]12([O]3)([O]c3cc4ccccc4cc3[O]1)[O]c1cc3ccccc3cc1[O]2 [Compound 8, K2[Ti(Naphthalene-2,3-diolate)3]]					inactive		>32	52.5				> 100	>>65.5 µg/mL
O=C([O-])C(=O)O.O=C([O-])C(=O)O.[K+].[K+].[O]=[Ti] [Compound 14, Potassium dioxalatoxotitanate(IV) dihydrate]					insignificant antiproliferative effect		>32	40.5				> 100	>>35.4 µg/mL
